Results: ChEMBL document CHEMBL1201862, “PubChem BioAssay data set” (2004)
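Tested at 5 concentrations; 48 h exposure; 96-well plates; endpoints linearly interpolated, else capped at highest concentration. At the GI50, growth is halved.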 Active and inactive are the calls of the source. No stated cut-off is given here; in the data, active = GI50 up to about 1.1 µM and inactive = higher.

Tests used:
Test in all cases: DTP human tumour cell line panel, 48 h
[1] = tested on: SF-268
[2] = tested on: SNB-19
[3] = tested on: HL-60
[4] = tested on: EKVX
[5] = tested on: SK-MEL-2
[6] = tested on: SK-MEL-5
[7] = tested on: TK-10
[8] = tested on: KM12
[9] = tested on: OVCAR-8
[10] = tested on: MDA-MB-231
[11] = tested on: ACHN
[12] = tested on: HCT-116
[13] = tested on: SN12C
[14] = tested on: NCI-H226
[15] = tested on: NCI/ADR-RES
[16] = tested on: IGROV-1
[17] = tested on: PC-3
[18] = tested on: SF-295
[19] = tested on: NCI-H23
[20] = tested on: 786-0
[21] = tested on: T47D
[22] = tested on: MDA-MB-435
[23] = tested on: UO-31
[24] = tested on: HT-29
[25] = tested on: MDA-N
[26] = tested on: LOX IMVI
[27] = tested on: SW-620
[28] = tested on: CAKI-1
[29] = tested on: HOP-92
[30] = tested on: DU-145
[31] = tested on: CCRF-CEM
[32] = tested on: Malme-3M
[33] = tested on: M14
[34] = tested on: OVCAR-4
[35] = tested on: BT-549
[36] = tested on: A549
[37] = tested on: COLO 205
[38] = tested on: SF-539
[39] = tested on: HCT-15
[40] = tested on: OVCAR-3
[41] = tested on: OVCAR-5
[42] = tested on: RXF 393
[43] = tested on: Hs-578T
[44] = tested on: MOLT-4
[45] = tested on: SK-MEL-28
[46] = tested on: UACC-257
[47] = tested on: K562
[48] = tested on: A498
[49] = tested on: UACC-62
[50] = tested on: NCI-H522
[51] = tested on: HOP-62
[52] = tested on: RPMI-8226
[53] = tested on: NCI-H460
[54] = tested on: SR
[55] = tested on: U-251

`Oc1cccc(-c2ccc3c4c2O[C@H]2c5[nH]c6ccccc6c5C[C@@]5(O)[C@@H](C3)N(CC3CC3)CC[C@]425)c1` was tested, and the GI50 [1] was 1.68 µM (inactive), the GI50 [2] was 1.64 µM (inactive) and the GI50 [3] was 1.65 µM (inactive). For the same compound, the GI50 [4] was 13.5 µM (inactive), the GI50 [5] was 2.46 µM (inactive) and the GI50 [6] was 3.48 µM (inactive). The GI50 [7] was 2.24 µM (inactive), the GI50 [8] was 1.98 µM (inactive) and the GI50 [9] was 1.83 µM (inactive). The GI50 [10] was 2.17 µM (inactive), the GI50 [11] was 2.23 µM (inactive) and the GI50 [12] was 1.82 µM (inactive). The GI50 [13] was 1.67 µM (inactive), the GI50 [14] was 3.75 µM (inactive) and the GI50 [15] was 2.11 µM (inactive). For the same compound, the GI50 [16] was 1.74 µM (inactive), the GI50 [17] was 1.98 µM (inactive) and the GI50 [18] was 1.82 µM (inactive). The GI50 [19] was 2.3 µM (inactive), the GI50 [20] was 1.62 µM (inactive) and the GI50 [21] was 2.07 µM (inactive). For the same compound, the GI50 [22] was 1.72 µM (inactive), the GI50 [23] was 1.67 µM (inactive) and the GI50 [24] was 1.7 µM (inactive). The GI50 [25] was 1.67 µM (inactive), the GI50 [26] was 1.8 µM (inactive) and the GI50 [27] was 1.88 µM (inactive). The GI50 [28] was 1.75 µM (inactive), the GI50 [29] was 2.13 µM (inactive) and the GI50 [30] was 1.87 µM (inactive). The GI50 [31] was 1.9 µM (inactive), the GI50 [32] was 1.86 µM (inactive) and the GI50 [33] was 1.7 µM (inactive). For the same compound, the GI50 [34] was 1.61 µM (inactive), the GI50 [35] was 10 µM (inactive) and the GI50 [36] was 1.78 µM (inactive). The GI50 [37] was 2.44 µM (inactive), the GI50 [38] was 1.68 µM (inactive) and the GI50 [39] was 1.67 µM. The GI50 [40] was 2 µM (inactive), the GI50 [41] was 1.96 µM (inactive) and the GI50 [42] was 1.35 µM (inactive). The GI50 [43] was 1.74 µM (inactive).

In the case of `C[N+]1(CCCC[N+]2(C)CCCCCCC2)CCCCCCC1`, the GI50 [1] is reported as > 100 µM (inactive), the GI50 [2] is reported as > 100 µM (inactive) and the GI50 [3] is reported as > 100 µM (inactive). The GI50 [4] was > 100 µM (inactive), the GI50 [5] was > 100 µM (inactive) and the GI50 [44] was > 100 µM (inactive). The GI50 [6] was > 100 µM (inactive), the GI50 [7] was > 100 µM (inactive) and the GI50 [8] was > 100 µM (inactive). For the same compound, the GI50 [9] was > 100 µM (inactive), the GI50 [10] was > 100 µM (inactive) and the GI50 [11] was > 100 µM (inactive). For the same compound, the GI50 [45] was > 100 µM (inactive), the GI50 [12] was > 100 µM (inactive) and the GI50 [46] was > 100 µM (inactive). The GI50 [13] was > 100 µM (inactive), the GI50 [47] was > 100 µM (inactive) and the GI50 [14] was > 100 µM (inactive). For the same compound, the GI50 [48] was > 100 µM (inactive), the GI50 [15] was > 100 µM (inactive) and the GI50 [16] was > 100 µM (inactive). The GI50 [17] was > 100 µM (inactive), the GI50 [49] was > 100 µM (inactive) and the GI50 [18] was > 100 µM (inactive). The GI50 [19] was > 100 µM (inactive), the GI50 [20] was > 100 µM (inactive) and the GI50 [21] was > 100 µM (inactive). The GI50 [22] was > 100 µM (inactive), the GI50 [23] was > 100 µM (inactive) and the GI50 [24] was > 100 µM (inactive). The GI50 [25] was > 100 µM (inactive), the GI50 [26] was > 100 µM (inactive) and the GI50 [27] was > 100 µM (inactive). For the same compound, the GI50 [28] was > 100 µM (inactive), the GI50 [29] was 77.1 µM (inactive) and the GI50 [30] was > 100 µM (inactive). For the same compound, the GI50 [31] was > 100 µM (inactive), the GI50 [32] was > 100 µM (inactive) and the GI50 [33] was > 100 µM (inactive). The GI50 [34] was > 100 µM (inactive), the GI50 [50] was > 100 µM (inactive) and the GI50 [51] was > 100 µM (inactive). For the same compound, the GI50 [35] was > 100 µM (inactive), the GI50 [36] was > 100 µM (inactive) and the GI50 [52] was > 100 µM (inactive). The GI50 [53] was > 100 µM (inactive), the GI50 [39] was > 100 µM and the GI50 [54] was > 100 µM (inactive). For the same compound, the GI50 [55] was > 100 µM (inactive), the GI50 [40] was > 100 µM (inactive) and the GI50 [41] was > 100 µM (inactive). The GI50 [42] was > 100 µM (inactive) and the GI50 [43] was 0.227 µM (active).
